Columns and labels:
[1] = tested on: BR and C2 canine mastocytoma cells; experiment: XTT-based proliferation assay of canine mast cell tumor cell lines; settings: 0.1-10 μM; 48-72 hours; BR or C2 cells
From the text: (§1) The C2 cell line has an internal tandem duplication (ITD) of the KIT juxtamembrane region.

[2] = tested on: systemic mastocytosis with D816V KIT mutation; experiment: Case of a patient with systemic mastocytosis / mast cell leukemia treated with PKC412; assay type: in vivo, human
From the text: They were supported with red blood cell and platelet transfusions, antihistamine blockade, and cromolyn sodium.

[3] = biological target: T1, constitutively activated mutant canine KIT in BR and C2 cells (Canis lupus familiaris, UniProt O97799, L579P); experiment: KIT autophosphorylation in BR and C2 canine mastocytoma cell lysates (anti-P-Tyr Western immunoblot); assay type: cell-based
T1 construct: Lysates prepared from BR or C2 cells are probed with an anti-P-Tyr antibody; endogenous in cells; host or cells: BR canine mastocytoma cell line
T1 sequence (O97799 28-979 L579P): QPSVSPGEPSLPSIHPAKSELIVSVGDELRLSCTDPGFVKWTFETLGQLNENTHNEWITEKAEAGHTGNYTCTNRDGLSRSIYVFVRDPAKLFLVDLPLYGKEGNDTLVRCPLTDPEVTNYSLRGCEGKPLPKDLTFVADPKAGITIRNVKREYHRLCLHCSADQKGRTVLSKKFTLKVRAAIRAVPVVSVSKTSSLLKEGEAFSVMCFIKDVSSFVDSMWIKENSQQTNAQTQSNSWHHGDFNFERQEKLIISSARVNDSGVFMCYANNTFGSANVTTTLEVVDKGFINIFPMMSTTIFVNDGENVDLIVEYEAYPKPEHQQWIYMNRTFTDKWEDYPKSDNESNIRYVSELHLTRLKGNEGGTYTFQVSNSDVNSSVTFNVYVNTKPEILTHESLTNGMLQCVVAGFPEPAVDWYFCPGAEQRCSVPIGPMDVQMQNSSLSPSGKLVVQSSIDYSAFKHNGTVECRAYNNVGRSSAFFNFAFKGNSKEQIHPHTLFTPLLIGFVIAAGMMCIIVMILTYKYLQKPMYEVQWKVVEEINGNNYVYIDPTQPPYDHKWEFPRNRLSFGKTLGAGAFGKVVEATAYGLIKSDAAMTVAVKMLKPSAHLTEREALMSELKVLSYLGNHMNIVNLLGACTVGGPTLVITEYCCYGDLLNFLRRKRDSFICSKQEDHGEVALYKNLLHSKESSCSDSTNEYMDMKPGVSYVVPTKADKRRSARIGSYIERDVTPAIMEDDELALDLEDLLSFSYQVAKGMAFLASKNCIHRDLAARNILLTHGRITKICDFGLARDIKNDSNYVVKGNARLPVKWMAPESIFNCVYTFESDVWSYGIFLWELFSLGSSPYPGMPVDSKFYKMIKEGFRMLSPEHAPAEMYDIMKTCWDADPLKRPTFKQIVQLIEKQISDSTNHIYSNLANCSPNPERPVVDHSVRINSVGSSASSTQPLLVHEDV
From the text: as §1

Q: What does the source list for `CO[C@@H]1[C@H](N(C)C(=O)c2ccccc2)C[C@H]2O[C@]1(C)n1c3ccccc3c3c4c(c5c6ccccc6n2c5c31)C(=O)NC4` [PKC412, N-[(9S, 10R,11R,13R)-2,3,10,11,12,13-hexahydro-10-methoxy-9-methyl-1-oxo-9,13-epoxy-1H,9H-diindolo[1,2,3-gh:3′,2′,1′-lm]pyrrolo[3,4j][1,7]benzodiazonin-11-yl]-N-methylbenzamide]?
A: proliferation decreased compared to cells treated with media only [1]: 90-95%; tolerability / adverse events ([2]; 100 mg twice daily orally, later 75 mg po tid): well tolerated without any significant adverse events; day on which patient expired ([2]; PKC412 stopped on day #102): 111 days; serum histamine level ([2]; after 1 month (about day 32)): 1031 ng/dL; Transient platelet-transfusion independence, duration ([2]; cycle 2): 2-3 weeks; platelets ([2]; cycle 2, during transient platelet-transfusion independence): 20,000-25,000 /mm3; Serum histamine ([2]; cycle 3): 2525 ng/dL; bilirubin (total) ([2]; cycle 3, when PKC412 stopped on day #102): 14 mg/dL; circulating mast cells ([2]; day 32 of treatment): < 5%; white blood cell count ([2]; day 32 of treatment): normal; Bone marrow clusters of mast cells by IPOX ([2]; end of cycle 1): no changes; Bone marrow blasts ([2]; end of cycle 1 / after 1 month, 5-10% at presentation): < 5%; Karnofsky performance status ([2]; end of cycle 1 / after 1 month, from 20% before therapy): 70%; Response (criteria of Valent et al) ([2]; end of cycle 1, 100 mg twice daily orally, 28-day cycles): Partial Response; direct bilirubin ([2]; end of cycle 1, from 2.8): 1.1 mg/dL; total bilirubin ([2]; end of cycle 1, from 4.8): 2.1 mg/dL; Peripheral blood mast cell numbers ([2]; end of cycle 1, from 40-50%): < 10%; LDH ([2]; end of cycle 1, from 769): 239 IU/L; Serum histamine ([2]; end of cycle 1, from 7000, normal <100): 1000 ng/dL; Bone marrow blasts ([2]; end of cycle 2): 10-15%; Bone marrow mast cell clusters ([2]; end of cycle 2): no significant change; Peripheral blood mast cell numbers ([2]; end of cycle 2): < 10%; Response ([2]; end of cycle 2): Maintenance of Partial Response; Serum histamine ([2]; end of cycle 2): 800 to 1200 ng/dL; serum tryptase ([2]; end of cycle 2): > 200 µg/L; direct bilirubin ([2]; end of cycle 2, from 1.1): 0.7 mg/dL; total bilirubin ([2]; end of cycle 2, from 2.1): 1.3 mg/dL; Response ([2]; end of cycle 3, dose increased to 75 mg po tid on day #91): Disease Progression; Inhibition of KIT autophosphorylation ([3]; 0.1 μM dose, BR or C2 cells, 90 minutes): Near complete inhibition; autophosphorylation of c-kit ([3]; 0.001-0.01 μM doses, BR or C2 cells, 90 minutes): Limited autophosphorylation; Inhibition of KIT autophosphorylation ([3]; 10 and 1.0 μM doses, BR or C2 cells, 90 minutes): complete inhibition; expression of c-kit protein (membrane reprobed with anti-c-kit antibody) ([3]; PKC412 treated BR or C2 cells): no change

From patent US8575146B2, “Pharmaceutical uses of staurosporine derivatives” (Novartis AG, priority 2003, dated 2013)
